Experimental data from patent US10233180B2, “Substituted nitrogen-containing heterocyclic derivatives, pharmaceutical compositions comprising the same and applications of antitumor thereof” (ZHEJIANG UNIVERSITY, priority 2014, dated 2019).
Where two headings read alike, the source gives them in different places.

Tests used:
[1] = biological target: T1, Akt1 (Homo sapiens, UniProt P31749); assay: AKT1/PKBα KinEASE FP Fluorescein Green Assay (fluorescence polarization kinase kit); type: biochemical; conditions: 1 h reaction, read-out: Inhibitory activities against Akt1 (IC50)
T1 construct: purchased 32-021
T1 sequence (P31749 whole entry): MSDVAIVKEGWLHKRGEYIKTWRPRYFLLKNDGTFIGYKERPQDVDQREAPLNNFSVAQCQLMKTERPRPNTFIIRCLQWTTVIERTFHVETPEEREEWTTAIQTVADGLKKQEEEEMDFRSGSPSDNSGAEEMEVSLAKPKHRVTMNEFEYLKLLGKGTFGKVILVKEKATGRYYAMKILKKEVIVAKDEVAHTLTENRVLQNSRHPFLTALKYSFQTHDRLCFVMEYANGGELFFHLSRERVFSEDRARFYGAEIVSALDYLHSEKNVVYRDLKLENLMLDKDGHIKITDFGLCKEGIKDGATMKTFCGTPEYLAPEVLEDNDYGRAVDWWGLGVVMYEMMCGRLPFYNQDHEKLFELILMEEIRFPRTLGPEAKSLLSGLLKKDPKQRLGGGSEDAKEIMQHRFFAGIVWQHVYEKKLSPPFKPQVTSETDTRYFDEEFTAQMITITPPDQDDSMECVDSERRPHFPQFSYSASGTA
Method: Second, method for determining the inhibitory activities of substituted nitrogen-containing heterocyclic derivatives in the present invention against Akt1 enzyme:
The inhibitory activities of compounds against AKT1/PKBα are determined by using AKT1/PKBα KinEASE™ FP Fluorescein Green Assay (Green fluorescence detection system of Kinase).
Principle adopted by the fluorescence polarization detection of protein kinase B is a competitive reaction: the phosphorylated tracers labeled with fluorescence will compete with unlabeled phosphorylated products produced by reacting with protein kinase B to combine anti-serine antibodies. […] However, in the reaction mixture containing phosphorylated products, fewer tracers will combine with antibodies (fluorescent tracers are replaced from the antibodies), and signals sent our occur depolarizing. Therefore, the change of polarization is directly related to the activity of protein kinase B in the reaction.
Each of 0.25 μl of compounds with a concentration of 50 μM and the positive control are added to a 384-well plate at room temperature, and each sample is provided with three parallel wells, and then 10 μl of STK Substrate 3 Working Solution, 5 μl of AKT1/PKBα Working Solution, 10 μl of ATP Working Solution are added to each sample respectively, the mixtures are slightly vibrated and shaked for a few minutes. Reaction is carried out just after the adding 10 μl of ATP Working Solution, from this time, reacting for 1 h. After 1 h, 5 μl of STK Stop Mix and 5 μl of STK Antibody Mix are added to each sample respectively to stop the reaction. The samples are maintained for 4 h at room temperature after adding is completed, the polarization values of samples are determined by fluorescence polarization of Microplate Reader (Detection of the signals is valid within 24 h), the inhibitory rate of compounds against the enzyme is calculated by polarization value, and thereby IC50 is calculated.
Experiment is set up four control groups at the same time, which are Buffer Control Wells, Tracer Control Wells, No Enzyme Wells and blank control of dimethyl sulfoxide, respectively. Thus obtained data are used to calculate the inhibitory rate (the preparation methods of above various solution required for determining the activities of compounds against enzyme refer to the specification of the kit of AKT1/PKBα KinEASE™ FP Fluorescein Green Assay Catalog #32-021).

[2] = test system: Human ovarian cancer cell strain OVCAR-8; assay: MTT assay, inhibition of tumor cell growth in vitro, 72 h; type: cell-based; conditions: OVCAR-8, MTT, read-out: Antitumor proliferative activities of tumor cell (IC50, μM) OVCAR-8
Method: (§1) First, inhibitory activity on tumor proliferation in vitro is determined and the structure activity relationship is preliminarily studied, in which different solid tumor cell strains are selected for determining the antitumor activities in vitro of the synthesized compounds.
(§2) Cell strains: Human ovarian cancer cell strain (OVCAR8), colon adenocarcinoma cell strain (HCT-116)
Medium: OVCAR8: RPMI 1640+Fetal Bovine Serum
(§3) Preparing method of medicines: Dissolving the medicine in DMSO to make a 50 mM stock solution, and diluting it according to a certain ratio to obtain 5 different concentrations.
(§4) Two selected tumor cells OVCAR8 and HCT-116 are incubated at 37° C. in a 5% CO2 incubator, which are subcultured when cells grow up to a density of 70˜90% (adherent cells are subcultured after digesting by Duck's EDTA) for later experiments.
(§5) Compounds are dissolved and diluted by dimethyl sulfoxide (DMSO), and tumor cells OVCAR8 and HCT-116 are seeded in a 96-well plate at a density of 4000 cells/200 μl/well, 1 μl of the compounds are added to each well with the final concentration of 50 μM, 10 μM, 2 μM, 0.4 μM and 0.08 μM, which is incubated for 72 h at 37° C. in a 5% CO2 incubator with DMSO (1%) as blank control.
(§6) The calculating formula of cell inhibitory rate is: cell inhibitory rate %=(the OD value of the control group−the OD value of the medication group)/the OD value of the control group×100%, the half maximal inhibitory concentration (IC50) is obtained by Bliss method.

[3] = test system: human colon cancer cell strain HCT-116; assay: as above; type: cell-based; conditions: HCT-116, MTT, read-out: Antitumor proliferative activities of tumor cell (IC50, μM) HCT-116 (converted)
Method: as §1, §2
HCT-116: RPMI 1640+Fetal Bovine Serum
as §3, §4, §5, §6

Row | Molecule | IC50 [1] [nM] | IC50 ([2]; Homo sapiens) [µM] | IC50 ([3]; Homo sapiens) [µM] | IC50 [2] [µM] | IC50 [3] [µM]
1 | Cn1ncc(Cl)c1-c1coc(C(=O)N[C@H]2CNCC[C@@H]2c2ccc(F)c(F)c2)c1 (racemic) [Compound 25, 4-(4-chloro-1-methyl-1H-pyrazol-5-yl)-N-(3,4-trans-4-(3,4-difluorophenyl)piperidin-3-yl)furan-2-formamide] | 238 | 21.4 | 3.19 | – | –
2 | CCc1cnn(C)c1-c1cccc(C(=O)N[C@H]2CNCC[C@@H]2c2ccc(Cl)cc2)c1Cl (racemic) [Compound 53, 2-chloro-3-(4-ethyl-1-methyl-1H-pyrazol-5-yl)-N-(3,4-trans-4-(4-chlorophenyl)piperidin-3-yl)phenyl formamide] | 29 | 4.69 | 2.66 | – | –
3 | Cc1nc(C(=O)N[C@H]2CNCC[C@@H]2c2ccc(F)c(F)c2)ncc1-c1c(Cl)cnn1C (racemic) [Compound 52, 4-methyl-5-(4-chloro-1-methyl-1H-pyrazol-5-yl)-N-(3,4-trans-4-(3,4-difluorophenyl)piperidin-3-yl)pyrimidine-2-formamide] | 72 | 1.06 | 2.05 | – | –
4 | Cn1nccc1-c1coc(C(=O)N[C@H]2CNCC[C@@H]2c2ccccc2)c1 (racemic) [Compound 1, 4-(1-methyl-1H-pyrazol-5-yl)-N-(3,4-trans-4-phenylpiperidin-3-yl)furan-2-formamide] | 72 | 1.34 | 3.98 | – | –
5 | 5-ethyl-1-methyl-4-(4-ethyl-1-methyl-1H-pyrazol-5-yl)-N-(3,4-trans-4-(piperidin-3-yl)piperidin-3-yl)-1H-pyrrole-2-formamide [Compound 17] | 28 | – | – | 1.43 | 3.4
6 | NC1(C(=O)N[C@@H](CCO)c2ccc(Cl)cc2)CCN(c2nc[nH]c3nccc2-3)CC1 [AZD5363, reference compound] | – | – | – | 7.27 | 5.2

Second part, led by results:

Row | IC50 [1] [nM] | IC50 ([2]; Homo sapiens) [µM] | IC50 ([3]; Homo sapiens) [µM] | Molecule | IC50 [2] [µM] | IC50 [3] [µM]
7 | 21 | 3.07 | 5.56 | Cn1ncc(Cl)c1-c1ccc(C(=O)N[C@@H]2CNCC[C@H]2c2cccc(F)c2)cc1OC(F)(F)F [Compound 85, 4-(4-chloro-1-methyl-1H-pyrazol-5-yl)-N-((3S,4S)-4-(3-fluorophenyl)piperidin-3-yl)-3-(trifluoromethoxy)benzamide] | – | –
8 | 1 | 0.56 | 0.34 | COCCC1C[C@@H](c2ccc(Cl)c(Cl)c2)[C@H](NC(=O)c2cc(-c3c(Cl)cnn3C)c(Cl)o2)CN1 (stereo partly drawn) [Compound 124, 5-chloro-4-(4-chloro-1-methyl-1H-pyrazol-5-yl)-N-((3S,4S)-4-(3,4-dichlorophenyl)-6-(2-methoxyethyl)piperidin-3-yl)furan-2-formamide] | – | –
9 | 7 | 0.43 | 2.11 | CNS(=O)(=O)CC1C[C@@H](c2ccc(F)c(F)c2)[C@H](NC(=O)c2ccc(-c3c(Cl)cnn3C)c(F)c2)CN1 (some centres unmarked) [Compound 101] | – | –
10 | 9 | 2.43 | 0.36 | Cn1ncc(Br)c1-c1ccc(C(=O)N[C@@H]2CNCC[C@H]2c2cccc(F)c2)s1 [Compound 147, 5-(4-bromo-1-methyl-1H-pyrazol-5-yl)-N-((3S,4S)-4-(3-fluorophenyl)piperidin-3-yl)thiophene-2-formamide] | – | –
11 | 7 | 1.22 | 0.89 | Cc1cc(C(=O)N[C@@H]2CNCC[C@H]2c2ccc(F)c(F)c2)ncc1-c1c(Cl)cnn1C [Compound 94, 5-(4-chloro-1-methyl-1H-pyrazol-5-yl)-N-((3S,4S)-4-(3,4-difluorophenyl)piperidin-3-yl)-4-methylpicolinamide] | – | –
12 | 3 | 4.02 | 3.68 | CNC(=O)CC1C[C@@H](c2ccc(Cl)c(Cl)c2)[C@H](NC(=O)c2cc(-c3c(Cl)cnn3C)c(Cl)o2)CN1 (stereo partly drawn) [Compound 118, 5-chloro-4-(4-chloro-1-methyl-1H-pyrazol-5-yl)-N-((3S,4S)-4-(3,4-dichlorophenyl)-6-(2-(methylamido)-2-oxoethyl)piperidin-3-yl)furan-2-formamide] | – | –
